In patent EP0670315A1, “Triazole oxime derivatives having antimycotic acitivity” (priority 1994, dated 1995):
Values after ≈ are worked out from the molar mass of the structure shown. Where two headings read alike, the source gives them in different places.

Experiments:
[1] = reported in prior art; cited from earlier work
[2] = tested on: Aspergillus fumigatus strain IFM0063; assay: Minimum Inhibitory Concentration (MIC), agar plate dilution method; format: cell-based; conditions: Sabouraud's dextrose agar, 30°C for 2 days, visual growth
Method: (§1) MIC measurements were conducted by an agar plate dilution method. Stated specifically, Aspergillus fumigatus strains IFM0063 and IFM4942 were cultured on a potato dextrose agar medium at 27°C for 10 days, and the growing conidia were suspended in a sterile physiological saline containing 0.05% Tween 80 to give a concentration of 10⁸ - 10⁹ conidia per ml. The suspension was conditioned in a Sabouraud's dextrose broth medium at a concentration of 10⁵ spores per ml and a 5-µl aliquot of the culture was inoculated into a drug-containing Sabouraud's dextrose agar medium and cultured at 30°C for 2 days. The growth of fungi was observed visually and the minimum concentration of the test drug that could inhibit the fungal growth was designated as its MIC.

[3] = tested on: Aspergillus fumigatus strain IFM4942; assay: as above; format: cell-based; conditions: Sabouraud's dextrose agar, 30°C for 2 days, visual growth
Method: as §1

[4] = tested on: Aspergillus fumigatus strain IFM41944; assay: Treatment of infection, protocol 1: mice infected with Aspergillus fumigatus, oral treatment, survival; format: in vivo; conditions: for ED50: Aspergillus fumigatus, IFM41944, ICR male mice, i.v. infection 1 × 10⁷ conidia, oral one hour after infection and following four days once a day, survival at 7th day, Litchfield-Wilcoxon, read-out: ED₅₀
Method: (§2) Mice infected with Aspergillus fumigatus were administered selected compounds of the invention orally and their therapeutic effect was measured. Stated specifically, ICR male mice (4-wk old) in groups each consisting of 10 animals were injected with Aspergillus fumigatus strain IFM41944 by injecting it into the tail vein at a concentration of 1 × 10⁷ conidia per animal. Each test compound was administered orally to the mice one hour after the infection and for the following four continuous days on a once-a-day basis. The number of mice that survived at the 7th day of the infection was counted (the day of infection was day "zero") and the ED₅₀ of each test compound was calculated by the Litchfield-Wilcoxon method to estimate its therapeutic effect.

[5] = tested on: Candida albicans strain IFM40009; assay: Treatment of infection, protocol 3: cyclophosphamide-immunosuppressed mice infected with Candida albicans, oral treatment, survival; format: in vivo; conditions: ICR male mice immunosuppressed with cyclophosphamide 100 mg/kg i.p. twice, i.v. infection 1 × 10⁶ cells, oral once after an hour of infection, survival at 7th day, read-out: ED₅₀
Method: Experimentally prepared immunosuppressed mice were infected with Candida albicans; they were then administered selected compounds of the invention orally and the therapeutic effect of the compounds was measured.
Stated specifically, ICR male mice (4-wk old) in groups each consisting of 10 animals were administered cyclophosphamide intraperitoneally at a dose of 100 mg/kg; four days later, the mice were similarly administered cyclophosphamide intraperitoneally to be rendered experimentally immunosuppressed. Simultaneously with the second shot of cyclophosphamide, Candida albicans strain IFM40009 was administered to the tail vein of each animal at a concentration of 1 × 10⁶ cells per animal to induce infection. Each test compound was administered orally to the mice once after an hour of infection.
The number of mice that survived at the 7th day of the infection was counted (the day of infection was day "zero") and the ED₅₀ of each test compound was calculated by the Litchfield-Wilcoxon method to estimate its therapeutic effect.

[6] = Toxicity test, repeated oral administration to mice; format: in vivo; conditions: 4-wk old mice, 5 consecutive days, 100 mg/kg
Method: The four selected compounds of the invention (those prepared in Examples 1, 2, 9 and 30) were administered orally to 4-wk old mice for 5 consecutive days at a dose of 100 mg/kg.

[7] = Solubility (usefulness as injections); format: physicochemical
[8] = tested on: Candida albicans strain IFM40009; assay: Treatment of infection, protocol 2: mice infected with Candida albicans, oral treatment, survival; format: in vivo; conditions: ICR male mice, i.v. infection 1 × 10⁶ cells, oral once after an hour of infection, survival at 7th day, Litchfield-Wilcoxon
Method: as §2, with “Candida albicans” for “Aspergillus fumigatus”, “IFM40009” for “IFM41944”, “10⁶ cells” for “10⁷ conidia”, “once after an” for “one”, “of infection.” for “after the infection and for the following four continuous days on a once-a-day basis.”

[9] = Aspergillus fumigatus, IFM0063, 48 h, read-out: MIC
[10] = Aspergillus fumigatus, IFM4942, 48 h, read-out: MIC

| SMILES | MIC [2, 9] [µg/mL] | MIC [3, 10] [µg/mL] | ED50 [8] [mg/kg] | also measured |
| --- | --- | --- | --- | --- |
| CON=CC(C)(C)C(O)(Cn1cncn1)c1ccc(Cl)cc1 (racemic) [Bay R 3783, (±)-3-(4-chlorophenyl)-2,2-dimethyl-3-hydroxy-4-(1,2,4-triazole-1-yl)butanol-oxime O-methylether] |  |  |  | hepatotoxicity as a side effect [1]: has hepatotoxicity as a side effect |
| COCON=C(C(C)C)C1(C(O)(Cn2cncn2)c2ccc(F)cc2F)CC1 (single isomer, unassigned; (-)) [Example 4, (-)-1-[1-[1-(2,4-difluorophenyl)-1-hydroxy-2-(1H-1,2,4-triazol-1-yl)ethyl]cyclopropyl]-2-methyl-1-propanone O-(methoxymethyl)oxime] |  |  |  | MIC [2]: 12.5 µg/mL (≈ 31.7 µM); MIC [3]: 12.5 µg/mL (≈ 31.7 µM) |
| CON=C(C(C)C)C1(C(O)(Cn2cncn2)c2ccc(F)cc2F)CC1 (single isomer, unassigned; (-)) [Example 6, (-)-1-[1-[1-(2,4-difluorophenyl)-1-hydroxy-2-(1H-1,2,4-triazol-1-yl)ethyl]cyclopropyl]-2-methyl-1-propanone O-methyl oxime] | 3.13 (≈ 8.59 µM) | 3.13 (≈ 8.59 µM) |  |  |
| COCON=C(C(C)C)C1(C(O)(Cn2cncn2)c2ccc(F)cc2F)CC1 (centres unmarked) [Example 1, 1-[1-[1-(2,4-difluorophenyl)-1-hydroxy-2-(1H-1,2,4-triazol-1-yl)ethyl]cyclopropyl]-2-methyl-1-propanone O-(methoxymethyl)oxime] | 25 (≈ 63.4 µM) | 25 (≈ 63.4 µM) |  | ED50 [4]: 30.3 mg/kg; ED50 [5]: 4.9 mg/kg; evidence for abnormality [6]: no evidence for abnormality |
| CCCC(=NOCOC)C1(C(O)(Cn2cncn2)c2ccc(F)cc2F)CC1 (centres unmarked) [Example 8] | 12.5 (≈ 31.7 µM) | 25 (≈ 63.4 µM) |  | ED50 [4]: 27.7 mg/kg |
| CCCC(=NOC)C1(C(O)(Cn2cncn2)c2ccc(F)cc2F)CC1 (centres unmarked) [Example 9] | 6.25 (≈ 17.2 µM) | 6.25 (≈ 17.2 µM) |  | ED50 [4]: 20.2 mg/kg; evidence for abnormality [6]: no evidence for abnormality |
| CCC(=NOCOC)C1(C(O)(Cn2cncn2)c2ccc(F)cc2F)CC1 (centres unmarked) [Example 10] | 6.25 (≈ 16.4 µM) | 12.5 (≈ 32.9 µM) |  |  |
| CCC(=NOC)C1(C(O)(Cn2cncn2)c2ccc(F)cc2F)CC1 (centres unmarked) [Example 11] | 3.13 (≈ 8.93 µM) | 3.13 (≈ 8.93 µM) |  |  |
| COCON=C(C1CC1)C1(C(O)(Cn2cncn2)c2ccc(F)cc2F)CC1 (centres unmarked) [Example 15] | 12.5 (≈ 31.9 µM) | 12.5 (≈ 31.9 µM) |  |  |
| CON=C(C)C(C)(C)C(O)(Cn1cncn1)c1ccc(F)cc1F (centres unmarked) [Example 21] | 3.13 (≈ 9.25 µM) | 3.13 (≈ 9.25 µM) |  |  |
| CCC(=NOC)C(C)(C)C(O)(Cn1cncn1)c1ccc(F)cc1F (centres unmarked) [Example 22] | 1.56 (≈ 4.43 µM) | 3.13 (≈ 8.88 µM) |  |  |
| CC(=NO)C(C)(C)C(O)(Cn1cncn1)c1ccc(F)cc1F (centres unmarked) [Example 29] | 6.25 (≈ 19.3 µM) | 12.5 (≈ 38.5 µM) |  |  |
| CC(C)C(=NOCn1cncn1)C1(C(O)(Cn2cncn2)c2ccc(F)cc2F)CC1 (centres unmarked) [Example 30, 1-[1-[1-(2,4-difluorophenyl)-1-hydroxy-2-(1H-1,2,4-triazol-1-yl)ethyl]cyclopropyl]-2-methyl-1-propanone O-[(1H-1,2,4-triazol-1-yl)methyl]oxime] |  |  |  | ED50 [4]: 43.4 mg/kg; evidence for abnormality [6]: no evidence for abnormality; solubility [7]: good enough solubility to be useful as injections |
| CCON=C(C(C)C)C1(C(O)(Cn2cncn2)c2ccc(F)cc2F)CC1 (centres unmarked) [Example 38] | 12.5 (≈ 33 µM) | 12.5 (≈ 33 µM) |  |  |
| CC(C)C(=NOCC#N)C1(C(O)(Cn2cncn2)c2ccc(F)cc2F)CC1 (centres unmarked) [Example 40] | 12.5 (≈ 32.1 µM) | 12.5 (≈ 32.1 µM) |  |  |
| CSCON=C(C(C)C)C1(C(O)(Cn2cncn2)c2ccc(F)cc2F)CC1 (centres unmarked) [Example 41] | 12.5 (≈ 30.5 µM) | 12.5 (≈ 30.5 µM) |  |  |

| SMILES | MIC [2, 9] [µg/mL] | MIC [3, 10] [µg/mL] | ED50 [8] [mg/kg] | also measured |
| --- | --- | --- | --- | --- |
| CCCON=C(C(C)C)C1(C(O)(Cn2cncn2)c2ccc(F)cc2F)CC1 (centres unmarked) [Example 42] | 25 (≈ 63.7 µM) | 25 (≈ 63.7 µM) |  |  |
| CC(C)C(=NOCCBr)C1(C(O)(Cn2cncn2)c2ccc(F)cc2F)CC1 (centres unmarked) [Example 44, 1-[1-[1-(2,4-difluorophenyl)-1-hydroxy-2-(1H-1,2,4-triazol-1-yl)ethyl]cyclopropyl]-2-methyl-1-propanone O-(2-bromoethyl)oxime] | 12.5 (≈ 27.3 µM) | 12.5 (≈ 27.3 µM) | 14.6 |  |
| CCCC(=NOCn1cncn1)C1(C(O)(Cn2cncn2)c2ccc(F)cc2F)CC1 (centres unmarked) [Example 46] |  |  | 15.7 |  |
| C#CCON=C(CC)C1(C(O)(Cn2cncn2)c2ccc(F)cc2F)CC1 (centres unmarked) [Example 51] | 3.13 (≈ 8.36 µM) | 3.13 (≈ 8.36 µM) | 11.3 |  |
| CCC(=NOCSC)C1(C(O)(Cn2cncn2)c2ccc(F)cc2F)CC1 (centres unmarked) [Example 53] | 1.56 (≈ 3.93 µM) | 3.13 (≈ 7.89 µM) | 13.5 |  |
| CCC(=NOCCBr)C1(C(O)(Cn2cncn2)c2ccc(F)cc2F)CC1 (centres unmarked) [Example 55] | 3.13 (≈ 7.06 µM) | 3.13 (≈ 7.06 µM) | 14.7 |  |
| CCCCON=C(CC)C1(C(O)(Cn2cncn2)c2ccc(F)cc2F)CC1 (centres unmarked) [Example 56] | 6.25 (≈ 15.9 µM) | 6.25 (≈ 15.9 µM) | 14.7 |  |
| CCC(=NOCn1cncn1)C1(C(O)(Cn2cncn2)c2ccc(F)cc2F)CC1 (centres unmarked) [Example 58] |  |  | 13.2 |  |
| CCC(=NOCc1ccncc1)C1(C(O)(Cn2cncn2)c2ccc(F)cc2F)CC1 (centres unmarked) [Example 59] | 6.25 (≈ 14.6 µM) | 6.25 (≈ 14.6 µM) | 10.7 |  |
| COC(OC)ON=C(C(C)C)C1(C(O)(Cn2cncn2)c2ccc(F)cc2F)CC1 (centres unmarked) [Example 72, 1-[1-[1-(2,4-difluorophenyl)-1-hydroxy-2-(1H-1,2,4-triazol-1-yl)ethyl]cyclopropyl]-2-methyl-1-propanone O-(dimethoxymethyl)oxime] |  |  | 13.5 |  |
| COC(C)(OC)ON=C(C(C)C)C1(C(O)(Cn2cncn2)c2ccc(F)cc2F)CC1 (centres unmarked) [Example 73, 1-[1-[1-(2,4-difluorophenyl)-1-hydroxy-2-(1H-1,2,4-triazol-1-yl)ethyl]cyclopropyl]-2-methyl-1-propanone O-(1-dimethoxyethyl)oxime] |  |  | 5.8 |  |
| COC(C)(C)ON=C(C(C)C)C1(C(O)(Cn2cncn2)c2ccc(F)cc2F)CC1 (centres unmarked) [Example 74, 1-[1-[1-(2,4-difluorophenyl)-1-hydroxy-2-(1H-1,2,4-triazol-1-yl)ethyl]cyclopropyl]-2-methyl-1-propanone O-(1-methoxy-1-methylethyl)oxime] |  |  | 8.9 |  |
| COC(C)ON=C(C(C)C)C1(C(O)(Cn2cncn2)c2ccc(F)cc2F)CC1 (centres unmarked) [Example 75, 1-[1-[1-(2,4-difluorophenyl)-1-hydroxy-2-(1H-1,2,4-triazol-1-yl)ethyl]cyclopropyl]-2-methyl-1-propanone O-(1-methoxyethyl)oxime] |  |  | 8.6 |  |
| OC(Cn1cncn1)(Cn1cncn1)c1ccc(F)cc1F [Fluconazole, fluconazole, reference compound] | > 100 | > 100 | 11.7 | ED50 [4]: > 100 mg/kg; antimycotic action in Aspergillus fumigatus infected animal models ([4]; doses up to 100 mg/kg, oral, mice): did not show any antimycotic action; ED50 [5]: 54.4 mg/kg |
| CCC(C)n1ncn(-c2ccc(N3CCN(c4ccc(OCC5COC(Cn6cncn6)(c6ccc(Cl)cc6Cl)O5)cc4)CC3)cc2)c1=O (centres unmarked) [Itraconazole, itraconazole, reference compound] |  |  |  | ED50 [4]: > 100 mg/kg |
